Here are results for six compounds from publication PMC6270845, “Fluorescent Probes for Insect Ryanodine Receptors: Candidate Anthranilic Diamides” (Molecules, 2014).

“And” between values parts separate entries of the source, which are not always exact repeats. Equal entries are not always repeated. Where two headings read alike, the source gives them in different places.

One data set concerns Plutella larvae. Description: Insecticidal activity, leaf-dip bioassay. The settings on record: fourth instar larvae, cabbage leaf-dip, mortality after 96 h.
In data set [1] the target is T1, house fly thoracic muscle RyR (Musca domestica, UniProt A0A9J7DBA3). Set-up: method as in PMID 22856329. Particulars: read-out: Stimulation of [3H]Ry binding (EC50), reported value; cited from earlier work.
Data set [2] deals with T1, house fly thoracic muscle RyR. Set-up: method as in PMID 22856329. Particulars: read-out: Inhibition of [3H]Chlo binding (IC50), reported value; cited from earlier work.
The target is the same in data set [3]. Description: Stimulation of [3H]Ry binding in Musca RyR radioligand assay. The settings on record: Musca muscle membrane, 1 nM [3H]Ry, 2 h at 37 °C. The procedure: (§1) [^3H]Ry (95 Ci/mmol, Perkin-Elmer Life Sciences, Boston, MA, USA) and [^3H]Chlo (78 Ci/mmol) were used in RyR binding assays with house fly thorax muscle membranes as reported earlier. Adults emerging from pupae obtained from Benzon Research (Carlisle, PA, USA) were used to collect the thoraces for membrane preparation. The following two buffers were used: (A) 10 μM phenylmethanesulfonyl fluoride, 0.8% bovine serum albumin, and 303 mM sucrose in 20 mM Tris-maleate, pH 7.0; and (B) 0.8 mM CaCl2, 2 mM ATP·Mg^2+ salt, and 1.5 M KCl in 10 mM Hepes, pH 7.4. Incubation mixtures were prepared by sequential addition to culture tubes of 200 μL of buffer B, 200 μL of buffer A containing thorax muscle membranes (200 μg protein) and then ethanol (5 μL) containing [^3H]Ry or [^3H]Chlo to give a final radioligand concentration of 1 nM. Finally, test compounds were added in 5 μL ethanol to give the specified concentrations of Fluor-Cl and Fluor-CN. Following incubation for 2 h at 37 °C, the mixtures were filtered through GF/B filters (Whatman, presoaked in ice-cold washing buffer) immediately after dilution with 5 mL of ice-cold washing buffer (150 mM KCl, 10 mM Hepes, pH 7.4). Each assay tube was further rinsed twice with 5 mL of ice-cold washing buffer, and the rinses were passed through the same filter. […] Binding data were analyzed and plotted by GraphPad Prism 5.0. […]

Data set [4] has the same target. Put plainly: Inhibition of [3H]Chlo binding in Musca RyR radioligand assay. The settings on record: Musca muscle membrane, 1 nM [3H]Chlo, 2 h at 37 °C. How it is done:
as §1

Take `CNC(=O)c1cc(Cl)cc(C)c1NC(=O)c1cc(Br)nn1-c1ncccc1Cl` [Chlo, chlorantraniliprole]: the “LC50 (95%CL)” value in the data set on Plutella larvae was 0.033(0.006–0.059) ppm. Moreover, the EC50 (commonly the concentration at which the effect is half-maximal) in data set [1] is 3 to 15 nM. In data set [2], the IC50 (commonly the point on the concentration scale where inhibition reaches its midpoint) is 6 to 14 nM.

For the compound `CNC(=O)c1cc(C#N)cc(C)c1NC(=O)c1cc(Br)nn1-c1ncccc1Cl` [Cyan, cyantraniliprole], in the data set on Plutella larvae, the “LC50 (95%CL)” value is reported as 0.061(0.035–0.086) ppm. The EC50 in data set [1] was 3 to 15 nM. Moreover, the IC50 in data set [2] is 6 to 14 nM.

On to `Cc1cc(C(F)(C(F)(F)F)C(F)(F)F)ccc1NC(=O)c1cccc(I)c1C(=O)NC(C)(C)CS(C)(=O)=O` [Flu, flubendiamide, reference compound], for which, in the data set with Plutella larvae, the “LC50 (95%CL)” value is reported as 0.056(0.037–0.068) ppm.

`Cc1cc(C#N)cc(C(=O)NCc2cn(-c3cc4ccc(O)cc4oc3=O)nn2)c1NC(=O)c1cc(Br)nn1-c1ncccc1Cl` [Fluor-CN, 3-Bromo-1-(3-chloropyridin-2-yl)-N-(4-cyano-2-((1-(7-hydroxy-2-oxo-2H-chromen-3-yl)-1H-1,2,3-triazol-4-yl)methylcarbamoyl)-6-methylphenyl)-1H-pyrazole-5-carboxamide]: the “LC50 (95%CL)” value in the data set on Plutella larvae is given as 7.57(4.57–11.77) ppm. Moreover, the EC50 in data set [3] was 5 to 7 nM and 5 nM. Besides, the IC50 in data set [4] is 34 to 39 nM and 39 nM.

As for `C#CCNC(=O)c1cc(C#N)cc(C)c1NC(=O)c1cc(Br)nn1-c1ncccc1Cl` [Prop-CN, 3-bromo-N-(4-cyano-2-methyl-6-(prop 2-ynylcarbamoyl)phenyl)-1-(3-chloropyridin-2-yl)-1H-pyrazole-5-carboxamide], in the data set with Plutella larvae, the “LC50 (95%CL)” value is 0.34(0.24–0.43) ppm.

On to `C#CCNC(=O)c1cc(Cl)cc(C)c1NC(=O)c1cc(Br)nn1-c1ncccc1Cl` [Prop-Cl, 3-Bromo-N-(4-chloro-2-methyl-6-(prop-2-ynylcarbamoyl)phenyl)-1-(3-chloropyridin-2-yl)-1H-pyrazole-5-carboxamide], for which the “LC50 (95%CL)” value in the data set with Plutella larvae was 0.080(0.024–0.152) ppm.
